The text below walks through data of BindingDB's records for doi:10.1021/acs.jmedchem.9b01183 (Univ. Lille, 2020).

Each structure is given as a SMILES string.

This test is described as follows: Inhibition of STAT5b in mouse BaF3/FLT3-ITD cells assessed as reduction in cell proliferation.
For orientation: IC50 means the midpoint of a concentration-inhibition curve. Turning to `O=C(O)c1nonc1NCn1cnnn1`, the 50% inhibitory concentration (IC50) was determined as 153 µM.

Take `COC(=O)c1nonc1NCn1cnnn1`: the IC50 is 25 µM.

Take `O=C(O)c1nonc1NCn1nnnc1Cc1ccccc1`: the IC50 turned out to be 76 µM.
